From US20240270762A1, “PENICILLIN-BINDING PROTEIN INHIBITORS” (priority 2021, published 2024)
In brackets after ≈: the same amount, converted by molar mass.

Tests used:
[1] = target: T1, A. baumannii PBP1a (Acinetobacter baumannii, UniProt A0ABX6CK30); assay: Bocillin-FL competition binding via gel filtration, A. baumannii PBP1a; settings: competition binding assay using Bocillin-FL via gel filtration; read-out: A. baumannii PBP1a Potency
T1 sequence (A0ABX6CK30 1-851): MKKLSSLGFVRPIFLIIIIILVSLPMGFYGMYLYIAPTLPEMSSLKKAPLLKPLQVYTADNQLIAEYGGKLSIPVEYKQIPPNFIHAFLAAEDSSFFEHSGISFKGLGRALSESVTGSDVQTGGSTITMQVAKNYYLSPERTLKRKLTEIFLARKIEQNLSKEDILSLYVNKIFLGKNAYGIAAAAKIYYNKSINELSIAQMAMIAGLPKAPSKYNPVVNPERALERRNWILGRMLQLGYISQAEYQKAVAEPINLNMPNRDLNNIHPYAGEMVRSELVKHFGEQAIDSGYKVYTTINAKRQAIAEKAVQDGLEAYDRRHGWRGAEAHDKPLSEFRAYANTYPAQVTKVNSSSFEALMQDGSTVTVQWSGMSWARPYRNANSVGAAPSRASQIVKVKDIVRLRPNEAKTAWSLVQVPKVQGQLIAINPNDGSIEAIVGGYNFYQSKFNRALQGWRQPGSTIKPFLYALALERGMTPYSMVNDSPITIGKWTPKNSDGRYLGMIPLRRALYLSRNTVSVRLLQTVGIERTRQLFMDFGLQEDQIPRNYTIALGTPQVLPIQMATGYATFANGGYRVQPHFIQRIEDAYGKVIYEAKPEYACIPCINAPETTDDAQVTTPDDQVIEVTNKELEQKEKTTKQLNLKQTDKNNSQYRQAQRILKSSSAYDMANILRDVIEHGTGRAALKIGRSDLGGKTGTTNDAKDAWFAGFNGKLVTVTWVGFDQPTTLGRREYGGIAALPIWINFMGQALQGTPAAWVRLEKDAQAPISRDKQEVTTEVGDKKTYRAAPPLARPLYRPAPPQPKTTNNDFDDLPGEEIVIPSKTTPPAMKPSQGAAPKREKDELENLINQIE
Summary of the method: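 Competitive equilibrium binding with Bocillin-FL reporter: PBP pre-incubated with inhibitor dilutions, Bocillin-FL added, 15 min incubation. Labelled enzyme isolated by size-exclusion spin plates, fluorescence measured; EC50 obtained by fitting bound fraction against inhibitor concentration with a Hill-coefficient model.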

[2] = system: N. gonorrhoeae ATCC 49226; assay: Liquid broth MIC in Fastidious broth; settings: Neisseria gonorrhoeae, ATCC49226, read-out: Minimum Inhibitory Concentration, ATCC 49226
[3] = system: N. gonorrhoeae FA1090; assay: Liquid broth MIC in Fastidious broth; settings: Neisseria gonorrhoeae, FA1090, read-out: Minimum Inhibitory Concentration, FA 1090
Method: Additional antibacterial testing of the series was performed in 8 reference strains of N. gonorrhoeae (ATCC 49226, FA1090, MS 11, WHO G, WHO L, WHO M, WHO K, WHO X, WHO Z, WHO Q, CDC-0197). ATCC 49226, FA1090, MS11, WHO G, WHO L, and WHO M produce wild type or wild-type like PBP2. WHO K, WHO X, WHO Z, WHO Q, and CDC-0197 produce mosaic PBP2. Liquid broth-based assays were used for antibacterial testing of PBP inhibitors in Neisseria gonorrhoeae. Briefly, cryo-preserved bacterial cultures of clinical strains were streaked for isolation on Chocolate Agar (72 g/L (2×) GC Agar Base (BD #228950) and 2% (2×) Hemoglobin was autoclaved at 121° C. for 20 minutes to sterilize. Once cooled to ˜50° C. the 2×GC Agar Base and 2× Hemoglobin solutions are combined and 1% IsoVitaleX Enrichment (BD #211876) was added to the solution). Strains were incubated at 36° C. and 5% CO2 to allow growth of colonies, 24 hours before inoculum preparation. 2-fold serial dilutions of test compounds were conducted in a 96 well plate with a final volume of 75 μL per well at 2-fold the final desired concentration in Fastidious broth (Remel #R07664). For preparation of assay inoculum, a direct suspension was prepared by aseptically swabbing 10-15 colonies from agar plates into culture tubes containing 2 mL of fresh sterile saline. After the dilution plates were set up, direct suspensions were then diluted in a cuvette containing sterile saline and the optical density was measured at 600 nm. Inocula were diluted such that 75 μL of this culture in Fastidious broth results in a starting bacterial concentration of 5×10^5 CFU/mL when added to the dilution plates. The plates were incubated for ˜24 hours at 36° C. and 5% CO2.

[4] = system: N. gonorrhoeae MS11; assay: Liquid broth MIC in Fastidious broth; settings: Neisseria gonorrhoeae, MS11, read-out: Minimum Inhibitory Concentration, MS11
[5] = system: N. gonorrhoeae WHO G; assay: Liquid broth MIC in Fastidious broth; settings: Neisseria gonorrhoeae, read-out: Minimum Inhibitory Concentration, WHO G
[6] = system: N. gonorrhoeae WHO L; assay: Liquid broth MIC in Fastidious broth; settings: Neisseria gonorrhoeae, read-out: Minimum Inhibitory Concentration, WHO L
[7] = system: N. gonorrhoeae WHO M; assay: Liquid broth MIC in Fastidious broth; settings: Neisseria gonorrhoeae, read-out: Minimum Inhibitory Concentration, WHO M
[8] = system: N. gonorrhoeae WHO K; assay: Liquid broth MIC in Fastidious broth; settings: Neisseria gonorrhoeae, read-out: Minimum Inhibitory Concentration, WHO K
[9] = system: N. gonorrhoeae WHO X; assay: Liquid broth MIC in Fastidious broth; settings: Neisseria gonorrhoeae, read-out: Minimum Inhibitory Concentration, WHO X
[10] = system: N. gonorrhoeae CDC-0197; assay: Liquid broth MIC in Fastidious broth; settings: Neisseria gonorrhoeae, CDC0197, read-out: Minimum Inhibitory Concentration, CDC-0197

Structure (SMILES) | EC50 [1] | MIC [2] | MIC [3] | MIC [4] | MIC [5] | MIC [6] | MIC [7] | MIC [8] | MIC [9] | MIC [10]
O=C(NCCCN1CCN(C(=O)N[C@@H](C(=O)N[C@H]2Cc3ccc(F)c(C(=O)O)c3OB2O)c2cc(F)c(O)c(O)c2Cl)C(=O)C1=O)c1ccnc(F)c1F [Example 300, (R)-3-((R)-2-(2-chloro-5-fluoro-3,4-dihydroxyphenyl)-2-(4-(3-(2,3-difluoroisonicotinamido)propyl)-2,3-dioxopiperazine-1-carboxamido)acetamido)-7-fluoro-2-hydroxy-3,4-dihydro-2H-benzo[e][1,2]oxaborinine-8-carboxylic acid] | 10 to 50 µM | 16 to 32 µg/mL (≈ 20.5 to 41 µM) | 4 to 8 µg/mL (≈ 5.12 to 10.2 µM) | 16 to 32 µg/mL (≈ 20.5 to 41 µM) | 16 to 32 µg/mL (≈ 20.5 to 41 µM) | > 64 µg/mL | 16 to 32 µg/mL (≈ 20.5 to 41 µM) | > 64 µg/mL | > 64 µg/mL | > 64 µg/mL
Cc1cc(C(=O)NCCCN2CCN(C(=O)NC(C(=O)N[C@H]3Cc4ccc(F)c(C(=O)O)c4OB3O)c3cc(F)c(O)c(O)c3Cl)C(=O)C2=O)c(F)cn1 (stereo partly drawn) [Example 301, (3R)-3-(2-(2-chloro-5-fluoro-3,4-dihydroxyphenyl)-2-(4-(3-(5-fluoro-2-methylisonicotinamido)propyl)-2,3-dioxopiperazine-1-carboxamido)acetamido)-7-fluoro-2-hydroxy-3,4-dihydro-2H-benzo[e][1,2]oxaborinine-8-carboxylic acid] | 10 to 50 µM | 16 to 32 µg/mL (≈ 20.6 to 41.2 µM) | 4 to 8 µg/mL (≈ 5.15 to 10.3 µM) | 16 to 32 µg/mL (≈ 20.6 to 41.2 µM) | 16 to 32 µg/mL (≈ 20.6 to 41.2 µM) | > 64 µg/mL | 16 to 32 µg/mL (≈ 20.6 to 41.2 µM) | > 64 µg/mL | > 64 µg/mL | > 64 µg/mL
O=C(NCCCN1CCN(C(=O)N[C@@H](C(=O)N[C@H]2Cc3ccc(F)c(C(=O)O)c3OB2O)c2cc(F)c(O)c(O)c2Cl)C(=O)C1=O)c1cccc(O)c1Cl [Example 303, (R)-3-((R)-2-(4-(3-(2-chloro-3-hydroxybenzamido)propyl)-2,3-dioxopiperazine-1-carboxamido)-2-(2-chloro-5-fluoro-3,4-dihydroxyphenyl)acetamido)-7-fluoro-2-hydroxy-3,4-dihydro-2H-benzo[e][1,2]oxaborinine-8-carboxylic acid] | < 10 µM | 4 to 8 µg/mL (≈ 5.04 to 10.1 µM) | 1 to 2 µg/mL (≈ 1.26 to 2.52 µM) | 4 to 8 µg/mL (≈ 5.04 to 10.1 µM) | 4 to 8 µg/mL (≈ 5.04 to 10.1 µM) | > 64 µg/mL | 4 to 8 µg/mL (≈ 5.04 to 10.1 µM) | > 64 µg/mL | > 64 µg/mL | 16 to 32 µg/mL (≈ 20.1 to 40.3 µM)
O=C(NCCCN1CCN(C(=O)NC(C(=O)N[C@H]2Cc3ccc(F)c(C(=O)O)c3OB2O)c2cc(F)c(O)c(O)c2Cl)C(=O)C1=O)c1ccc(O)c(F)c1 (stereo partly drawn) [Example 304, (3R)-3-(2-(2-chloro-5-fluoro-3,4-dihydroxyphenyl)-2-(4-(3-(3-fluoro-4-hydroxybenzamido)propyl)-2,3-dioxopiperazine-1-carboxamido)acetamido)-7-fluoro-2-hydroxy-3,4-dihydro-2H-benzo[e][1,2]oxaborinine-8-carboxylic acid] | < 10 µM | 16 to 32 µg/mL (≈ 20.6 to 41.1 µM) | 1 to 2 µg/mL (≈ 1.29 to 2.57 µM) | 16 to 32 µg/mL (≈ 20.6 to 41.1 µM) | 16 to 32 µg/mL (≈ 20.6 to 41.1 µM) | > 64 µg/mL | 16 to 32 µg/mL (≈ 20.6 to 41.1 µM) | > 64 µg/mL | > 64 µg/mL | > 64 µg/mL
O=C(NCCCN1CCN(C(=O)NC(C(=O)N[C@H]2Cc3ccc(F)c(C(=O)O)c3OB2O)c2cc(F)c(O)c(O)c2Cl)C(=O)C1=O)c1ccc(O)c(Cl)c1 (stereo partly drawn) [Example 305, (3R)-3-(2-(4-(3-(3-chloro-4-hydroxybenzamido)propyl)-2,3-dioxopiperazine-1-carboxamido)-2-(2-chloro-5-fluoro-3,4-dihydroxyphenyl)acetamido)-7-fluoro-2-hydroxy-3,4-dihydro-2H-benzo[e][1,2]oxaborinine-8-carboxylic acid] | < 10 µM | 16 to 32 µg/mL (≈ 20.1 to 40.3 µM) | 1 to 2 µg/mL (≈ 1.26 to 2.52 µM) | 16 to 32 µg/mL (≈ 20.1 to 40.3 µM) | 16 to 32 µg/mL (≈ 20.1 to 40.3 µM) | > 64 µg/mL | 16 to 32 µg/mL (≈ 20.1 to 40.3 µM) | > 64 µg/mL | > 64 µg/mL | > 64 µg/mL
